Reference: patent publication US10239849B2 (Merck Sharp & Dohme Corp., priority 2015, dated 2019)

Key:
[1] = target: T1, glutathione-S-transferase (GST) tagged LXRbeta LBD (ligand binding domain) (Homo sapiens, UniProt P55055); assay: LanthaScreen TR-FRET Liver X Receptor Coactivator Assay, LXR beta-LBD; assay type: biochemical; details: for Emax: efficacy in relation to reference dual agonist T1317, read-out: LXR beta activity at max dose (%) (Emax); for EC50: potency (Inflection Point) of co-activator recruitment, TR-FRET, read-out: LXR beta IP
T1 construct: purchased Invitrogen pv4658.pps
T1 sequence (P55055 222-460 limits assumed): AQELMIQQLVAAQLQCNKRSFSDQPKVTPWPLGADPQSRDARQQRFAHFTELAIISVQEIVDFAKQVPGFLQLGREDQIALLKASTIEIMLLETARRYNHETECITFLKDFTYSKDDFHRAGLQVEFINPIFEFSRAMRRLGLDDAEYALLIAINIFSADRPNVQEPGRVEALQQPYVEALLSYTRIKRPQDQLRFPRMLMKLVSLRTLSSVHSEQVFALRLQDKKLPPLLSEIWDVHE
Protocol: (§1) While running the LanthaScreen™ TR-FRET Liver X Receptor Coactivator Assay, LXR alpha-LBD or LXR beta-LBD was added to ligand test compounds followed by addition of a mixture of a fluorescein-labelled coactivator peptide and terbium-conjugated anti-GST antibody. After an incubation period at room temperature, TR-FRET (time-resolved fluorescence resonance energy transfer) was measured using a filter-based instrument capable of TR-FRET, e.g. PerkinElmer Envision.

[2] = target: T2, glutathione-S-transferase (GST) tagged LXRalpha LBD (ligand binding domain) (Homo sapiens, UniProt Q13133); assay: LanthaScreen TR-FRET Liver X Receptor Coactivator Assay, LXR alpha-LBD; assay type: biochemical; details: for Emax: efficacy in relation to reference dual agonist T1317, read-out: LXR alpha activity at max dose (%) (Emax); for EC50 / LXR alpha IP (nM): potency (Inflection Point) of co-activator recruitment, TR-FRET; for EC50: read-out: LXR alpha IP
T2 construct: purchased Invitrogen pv4655
T2 sequence (Q13133 209-447 limits assumed): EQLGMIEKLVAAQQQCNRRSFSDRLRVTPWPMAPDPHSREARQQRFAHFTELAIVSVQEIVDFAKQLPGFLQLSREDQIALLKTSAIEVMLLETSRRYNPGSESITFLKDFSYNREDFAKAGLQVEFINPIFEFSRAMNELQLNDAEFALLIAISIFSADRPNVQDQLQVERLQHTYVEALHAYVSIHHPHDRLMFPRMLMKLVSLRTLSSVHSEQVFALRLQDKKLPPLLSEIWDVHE
Protocol: as §1

| Emax [1] | EC50 [1] | Emax [2] | EC50 [2] | LXR alpha IP (nM) [2] | Structure (SMILES) |
| --- | --- | --- | --- | --- | --- |
| 94% | 94 nM | 66% | 2030 nM |  | CC(C)(C)OC(=O)N1CCN(c2ncc(-c3ccc(C(N)=O)c(Cl)c3)cc2C#N)CC1 [Example 5-2, tert-butyl 4-[5-(4-carbamoyl-3-chlorophenyl)-3-cyanopyridin-2-yl]piperazine-1-carboxylate] |
| 63% | 332 nM | 38% | 12600 nM |  | CC(C)(C)OC(=O)N1CCN(c2ncc(-c3ccc(C(=O)N4CCOCC4)c(Cl)c3)cc2C#N)CC1 [Example 5-14, tert-butyl 4-{5-[3-chloro-4-(morpholin-4-ylcarbonyl)phenyl]-3-cyanopyridin-2-yl}piperazine-1-carboxylate] |
| 78% | 2210 nM | 44% | 23900 nM |  | C=CCN(C(=O)c1ccc(-c2cnc(N3CCN(C(=O)OC(C)(C)C)CC3)c(C#N)c2)cc1Cl)C1CCS(=O)(=O)C1 (stereo not shown) [Example 5-32, tert-butyl 4-(5-{3-chloro-4-[(1,1-dioxidotetrahydro-thiophen-3-yl)(prop-2-en-1-yl)carbamoyl]phenyl}-3-cyanopyridin-2-yl)piperazine-1-carboxylate] |
| 39% | 188 nM | 16% | 1600 nM |  | CN(C)C(=O)c1ccc(-c2cc(Cl)c(N3CCN(C(=O)c4ccccc4Cl)CC3)c(Cl)c2)cc1Cl [Example 4-6, 3,3′,5′-trichloro-4′-{4-[(2-chlorophenyl)carbonyl]piperazin-1-yl}-N,N-dimethylbiphenyl-4-carboxamide] |
| 77% | 4160 nM | 19% |  | No IP | CN(C)C(=O)c1ccc(-c2ccc(N3CCN(C(=O)c4c(F)cccc4F)CC3)cc2)cc1Cl [Example 4-16, 3-chloro-4′-{4-[(2,6-difluorophenyl)carbonyl]piperazin-1-yl}-N,N-dimethylbiphenyl-4-carboxamide] |
| 73% | 1660 nM | 30% | 10800 nM |  | CN(C)C(=O)c1ccc(-c2cnc(N3CCN(C(=O)OC(C)(C)C)CC3)c(C#N)c2)cc1C(F)(F)F [Example 8-9, tert-butyl 4-{3-cyano-5-[4-(dimethylcarbamoyl)-3-(trifluoromethyl)phenyl]pyridin-2-yl}piperazine-1-carboxylate] |
| 75% | 1170 nM | 30% | 6580 nM |  | CN(CC(O)c1ccccc1)C(=O)c1ccc(-c2cnc(N3CCN(C(=O)OC(C)(C)C)CC3)c(C#N)c2)cc1Cl (stereo not shown) [Example 5-29, tert-butyl 4-(5-{3-chloro-4-[(2-hydroxy-2-phenylethyl)(methyl)carbamoyl]phenyl}-3-cyanopyridin-2-yl)piperazine-1-carboxylate] |
| 77% | 435 nM | 43% | 8780 nM |  | CN(C)NC(=O)c1ccc(-c2cnc(N3CCN(C(=O)OC(C)(C)C)CC3)c(C#N)c2)cc1Cl [Example 5-6, tert-butyl 4-(5-{3-chloro-4-[(2,2-dimethylhydrazino)carbonyl]phenyl}-3-cyanopyridin-2-yl)piperazine-1-carboxylate] |

Further lines, the compound ahead of its results:

| Structure (SMILES) | Emax [1] | EC50 [1] | Emax [2] | EC50 [2] | LXR alpha IP (nM) [2] |
| --- | --- | --- | --- | --- | --- |
| CN(C)C(=O)c1ccc(-c2cnc(N3CCN(C(=O)C4Cc5ccccc54)CC3)c(C#N)c2)cc1Cl (stereo not shown) [Example 2-13, 4-{6-[4-(bicyclo[4.2.0]octa-1,3,5-trien-7-ylcarbonyl)piperazin-1-yl]-5-cyanopyridin-3-yl}-2-chloro-N,N-dimethylbenzamide] | 108% | 57 nM | 50% | 8050 nM |  |
| CN(C)C(=O)c1ccc(-c2cnc(N3CCN(S(=O)(=O)c4ccccc4F)CC3)c(C#N)c2)cc1Cl [Example 1-8, 2-chloro-4-(5-cyano-6-{4-[(2-fluorophenyl)sulfonyl]piperazin-1-yl}pyridin-3-yl)-N,N-dimethylbenzamide] | 89% | 17 nM | 34% | 12100 nM |  |
| CN(C)C(=O)c1ccc(-c2cnc(N3CCN(C(=O)Cc4c[nH]c5ccccc45)CC3)c(C#N)c2)cc1Cl [Example 2-22, 2-chloro-4-{5-cyano-6-[4-(1H-indol-3-ylacetyl)piperazin-1-yl]pyridin-3-yl}-N,N-dimethylbenzamide] | 83% | 186 nM | 54% | 30000 nM |  |
| Cc1noc(C)c1CC(=O)N1CCN(c2ncc(-c3ccc(C(=O)N(C)C)c(Cl)c3)cc2C#N)CC1 [Example 2-14, 2-chloro-4-(5-cyano-6-{4-[(3,5-dimethylisoxazol-4-yl)acetyl]piperazin-1-yl}pyridin-3-yl)-N,N-dimethylbenzamide] | 77% | 1350 nM | 23% |  | No IP |
| Cc1cccc(COC(=O)N2CCN(c3ncc(-c4ccc(C(=O)N(C)C)c(Cl)c4)cc3C#N)CC2)c1 [Example 3-5, 3-methylbenzyl 4-{5-[3-chloro-4-(dimethylcarbamoyl)phenyl]-3-cyanopyridin-2-yl}piperazine-1-carboxylate] | 97% | 56 nM | 57% | 1340 nM |  |
| Cc1ccccc1COC(=O)N1CCN(c2ncc(-c3ccc(C(=O)N(C)C)c(Cl)c3)cc2C#N)CC1 [Example 3-4, 2-methylbenzyl 4-{5-[3-chloro-4-(dimethylcarbamoyl)phenyl]-3-cyanopyridin-2-yl}piperazine-1-carboxylate] | 86% | 87 nM | 122% | 2820 nM |  |
| CN(C)C(=O)c1ccc(-c2cnc(N3CCN(C(=O)C4(c5ccccc5F)CCCC4)CC3)c(C#N)c2)cc1Cl [Example 2-29, 2-chloro-4-[5-cyano-6-(4-{[1-(2-fluorophenyl)cyclopentyl]carbonyl}piperazin-1-yl)pyridin-3-yl]-N,N-dimethylbenzamide] | 93% | 15 nM | 57% | 4230 nM |  |
| CN(C)C(=O)c1ccc(-c2cnc(N3CCN(C(=O)C(O)(C4CCCCC4)C(F)(F)F)CC3)c(C#N)c2)cc1Cl (stereo not shown) [Example 2-33, 2-chloro-4-{5-cyano-6-[4-(2-cyclohexyl-3,3,3-trifluoro-2-hydroxypropanoyl)piperazin-1-yl]pyridin-3-yl}-N,N-dimethylbenzamide] | 115% | 162 nM | 27% | 3290 nM |  |
| CCC(C)S(=O)(=O)N1CCN(c2ncc(-c3ccc(C(=O)N(C)C)c(Cl)c3)cc2C#N)CC1 (stereo not shown) [Example 1-4, 2-chloro-4-(5-cyano-6-{4-[(1-methylpropyl)sulfonyl]piperazin-1-yl}pyridin-3-yl)-N,N-dimethylbenzamide] | 81% | 279 nM | 44% | 49000 nM |  |
| CCCC(O)(C(=O)N1CCN(c2ncc(-c3ccc(C(=O)N(C)C)c(Cl)c3)cc2C#N)CC1)C(F)(F)F (stereo not shown) [Example 2-25, 2-chloro-4-(5-cyano-6-{4-[2-hydroxy-2-(trifluoromethyl)pentanoyl]piperazin-1-yl}pyridin-3-yl)-N,N-dimethylbenzamide] | 100% | 94 nM | 53% | 4150 nM |  |
| CN(C)C(=O)c1ccc(-c2cnc(N3CCN(C(=O)OCc4ccccc4C(F)(F)F)CC3)c(C#N)c2)cc1Cl [Example 3-11, 2-(trifluoromethyl)benzyl 4-{5-[3-chloro-4-(dimethylcarbamoyl)phenyl]-3-cyanopyridin-2-yl}piperazine-1-carboxylate] | 96% | 79 nM | 39% | 1200 nM |  |
| CN(C)C(=O)c1ccc(-c2ccc(N3CC4CCC(C3)N4S(=O)(=O)c3c(Cl)cccc3Cl)cc2)cc1Cl [Example 8-14, 3-chloro-4′-{8-[(2,6-dichlorophenyl)sulfonyl]-3,8-diazabicyclo[3.2.1]oct-3-yl}-N,N-dimethylbiphenyl-4-carboxamide] | 118% | 76 nM | 37% | 3470 nM |  |
| CCCCC(C)(C)C(=O)N1CCN(c2ncc(-c3ccc(C(=O)N(C)C)c(Cl)c3)cc2C#N)CC1 [Example 2-12, 2-chloro-4-{5-cyano-6-[4-(2,2-dimethylhexanoyl)piperazin-1-yl]pyridin-3-yl}-N,N-dimethylbenzamide] | 79% | 27 nM | 43% | 1750 nM |  |
| CN(C)C(=O)c1ccc(-c2cnc(N3CCN(C(=O)OCc4ccccc4Cl)CC3)c(C#N)c2)cc1Cl [Example 3-9, 2-chlorobenzyl 4-{5-[3-chloro-4-(dimethylcarbamoyl)phenyl]-3-cyanopyridin-2-yl}piperazine-1-carboxylate] | 84% | 155 nM | 39% | 8900 nM |  |
